Experimental data reported in patent publication US10106538B2, “Inhibitors of protein kinases” (PRINCETON DRUG DISCOVERY INC, priority 2015, dated 2018).
One block for each compound: values may come before it.

What was measured:
Assay in all cases: Off-chip Mobility Shift Assay (MSA) kinase inhibition
Type in all cases: biochemical
MNK2 = biological target: T1, MNK2 (Homo sapiens, UniProt Q9HBH9); conditions: for inhibition at 0.1 µM: inhibitor concentration 0.1 μM
T1 construct: purchased Carna Biosciences
Experimental: (§1) Off-chip Mobility Shift Assay (MSA) by Cama Biosciences, Inc (Natick, Mass.) a used for measuring the kinase activity and inhibition. • 1) The 5 μL of x4 compound solution, 5 μL of x4 Substrate/ATP/Metal solution, and 10 μL of x2 kinase solution were prepared with assay buffer (20 mM HEPES, 0.01% Triton X100, 2 mM DTT, pH 7.5) and mixed and incubated in a well of polypropylene 384 well microplate for 1 or 5 hour(s)* at room temperature.

ROS = biological target: T2, ROS (Homo sapiens, UniProt P08922); conditions: inhibitor concentration 0.1 μM
T2 construct: purchased Carna Biosciences
Experimental: as §1

SRM = biological target: T3, SRM (Homo sapiens, UniProt Q9H3Y6); conditions: for inhibition at 0.1 µM: inhibitor concentration 0.1 μM
T3 construct: purchased Carna Biosciences
Experimental: as §1

BRAF(V600E) = biological target: T4, BRAF(V600E) (Homo sapiens, UniProt P15056, V600E)
T4 construct: purchased Carna Biosciences
Experimental: as §1

KIT = biological target: T5, KIT (Homo sapiens, UniProt P10721); conditions: for inhibition at 0.1 µM: inhibitor concentration 0.1 μM
T5 construct: purchased Carna Biosciences
Experimental: as §1

AKT2 = biological target: T6, AKT2 (Homo sapiens, UniProt P31751); conditions: inhibitor concentration 0.1 μM
T6 construct: purchased Carna Biosciences
Experimental: as §1

JAK1 = biological target: T7, JAK1 (Homo sapiens, UniProt P23458); conditions: for inhibition at 0.1 µM: inhibitor concentration 0.1 μM
T7 construct: purchased Carna Biosciences
Experimental: as §1

JAK3 = biological target: T8, JAK3 (Homo sapiens, UniProt P52333); conditions: for inhibition at 0.1 µM: inhibitor concentration 0.1 μM
T8 construct: purchased Carna Biosciences
T8 sequence (P52333 1-1124): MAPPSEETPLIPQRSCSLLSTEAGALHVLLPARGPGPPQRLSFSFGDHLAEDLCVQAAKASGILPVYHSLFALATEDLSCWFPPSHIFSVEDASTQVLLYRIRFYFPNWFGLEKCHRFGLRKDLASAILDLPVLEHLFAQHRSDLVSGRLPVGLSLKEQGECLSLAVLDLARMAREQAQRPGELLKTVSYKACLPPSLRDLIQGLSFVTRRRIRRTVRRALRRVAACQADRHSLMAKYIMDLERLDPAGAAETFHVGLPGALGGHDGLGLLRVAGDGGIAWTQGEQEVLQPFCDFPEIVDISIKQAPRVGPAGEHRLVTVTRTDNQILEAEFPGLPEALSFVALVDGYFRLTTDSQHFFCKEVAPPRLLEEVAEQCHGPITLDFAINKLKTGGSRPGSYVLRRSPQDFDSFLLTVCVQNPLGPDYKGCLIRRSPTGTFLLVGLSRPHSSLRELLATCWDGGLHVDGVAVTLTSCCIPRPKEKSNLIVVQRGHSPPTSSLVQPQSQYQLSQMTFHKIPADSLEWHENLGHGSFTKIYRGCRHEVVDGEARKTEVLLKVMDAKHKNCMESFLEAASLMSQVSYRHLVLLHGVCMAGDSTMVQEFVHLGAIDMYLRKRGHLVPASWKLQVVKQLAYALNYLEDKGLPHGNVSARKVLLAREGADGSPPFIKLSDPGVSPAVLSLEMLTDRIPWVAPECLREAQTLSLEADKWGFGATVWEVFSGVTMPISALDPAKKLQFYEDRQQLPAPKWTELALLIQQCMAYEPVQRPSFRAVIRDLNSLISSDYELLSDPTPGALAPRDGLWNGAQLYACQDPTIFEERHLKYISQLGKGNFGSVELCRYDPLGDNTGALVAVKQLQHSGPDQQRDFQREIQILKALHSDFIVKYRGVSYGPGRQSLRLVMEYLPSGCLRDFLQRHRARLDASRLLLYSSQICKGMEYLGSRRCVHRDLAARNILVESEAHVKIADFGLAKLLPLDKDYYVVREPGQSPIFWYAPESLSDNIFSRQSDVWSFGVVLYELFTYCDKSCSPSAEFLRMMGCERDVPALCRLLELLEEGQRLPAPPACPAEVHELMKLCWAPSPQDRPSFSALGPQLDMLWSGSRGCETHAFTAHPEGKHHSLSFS
Experimental: as §1

HER4 = biological target: T9, HER4 (Homo sapiens, UniProt Q15303); conditions: for inhibition at 0.1 µM: inhibitor concentration 0.1 μM
T9 construct: purchased Carna Biosciences
Experimental: as §1

EGFR(L858R) = biological target: T10, EGFR(L858R) (Homo sapiens, UniProt P00533, L858R); conditions: inhibitor concentration 0.1 μM
T10 construct: purchased Carna Biosciences
Experimental: as §1

RET = biological target: T11, RET (Homo sapiens, UniProt P07949); conditions: for inhibition at 0.1 µM: inhibitor concentration 0.1 μM
T11 construct: purchased Carna Biosciences
Experimental: as §1

MAP2K1 = biological target: T12, MAP2K1 (Homo sapiens, UniProt Q02750); conditions: for inhibition at 0.1 µM: inhibitor concentration 0.1 μM
T12 construct: purchased Carna Biosciences
Experimental: as §1

LYNa = biological target: T13, LYNa (Homo sapiens, UniProt P07948); conditions: for inhibition at 0.1 µM: inhibitor concentration 0.1 μM
T13 construct: purchased Carna Biosciences
Experimental: as §1

MAP2K2 = biological target: T14, MAP2K2 (Homo sapiens, UniProt P36507); conditions: for inhibition at 0.1 µM: inhibitor concentration 0.1 μM
T14 construct: purchased Carna Biosciences
Experimental: as §1

Erk5 = biological target: T15, Erk5 (Homo sapiens, UniProt Q13164); conditions: for inhibition at 0.1 µM: inhibitor concentration 0.1 μM
T15 construct: purchased Carna Biosciences
Experimental: as §1

PDGFRβ = biological target: T16, PDGFRβ (Homo sapiens, UniProt P09619); conditions: for inhibition at 0.1 µM: inhibitor concentration 0.1 μM
T16 construct: purchased Carna Biosciences
Experimental: as §1

ALK = biological target: T17, ALK (Homo sapiens, UniProt Q9UM73); conditions: for inhibition at 0.1 µM: inhibitor concentration 0.1 μM
T17 construct: purchased Carna Biosciences
Experimental: as §1

JNK1 = biological target: T18, JNK1 (Homo sapiens, UniProt P45983); conditions: inhibitor concentration 0.1 μM
T18 construct: purchased Carna Biosciences
Experimental: as §1

ABL = biological target: T19, ABL (Homo sapiens, UniProt P00519); conditions: for inhibition at 0.1 µM: inhibitor concentration 0.1 μM
T19 construct: purchased Carna Biosciences
Experimental: as §1

KIT(D816V) = biological target: T20, KIT(D816V) (Homo sapiens, UniProt P10721, D816V); conditions: for inhibition at 0.1 µM: inhibitor concentration 0.1 μM
T20 construct: purchased Carna Biosciences
Experimental: as §1

LYNb = biological target: T21, LYNb (Homo sapiens, UniProt P07948); conditions: for inhibition at 0.1 µM: inhibitor concentration 0.1 μM
T21 construct: purchased Carna Biosciences
Experimental: as §1

FGFR3 = biological target: T22, FGFR3 (Homo sapiens, UniProt P22607); conditions: for inhibition at 0.1 µM: inhibitor concentration 0.1 μM
T22 construct: purchased Carna Biosciences
Experimental: as §1

FGR = biological target: T23, FGR (Homo sapiens, UniProt P09769); conditions: for inhibition at 0.1 µM: inhibitor concentration 0.1 μM
T23 construct: purchased Carna Biosciences
Experimental: as §1

IGF1R = biological target: T24, IGF1R (Homo sapiens, UniProt P08069); conditions: for inhibition at 0.1 µM: inhibitor concentration 0.1 μM
T24 construct: purchased Carna Biosciences
Experimental: as §1

[1] = inhibitor concentration 0.01 μM

T11 sequence (P07949 29-1114): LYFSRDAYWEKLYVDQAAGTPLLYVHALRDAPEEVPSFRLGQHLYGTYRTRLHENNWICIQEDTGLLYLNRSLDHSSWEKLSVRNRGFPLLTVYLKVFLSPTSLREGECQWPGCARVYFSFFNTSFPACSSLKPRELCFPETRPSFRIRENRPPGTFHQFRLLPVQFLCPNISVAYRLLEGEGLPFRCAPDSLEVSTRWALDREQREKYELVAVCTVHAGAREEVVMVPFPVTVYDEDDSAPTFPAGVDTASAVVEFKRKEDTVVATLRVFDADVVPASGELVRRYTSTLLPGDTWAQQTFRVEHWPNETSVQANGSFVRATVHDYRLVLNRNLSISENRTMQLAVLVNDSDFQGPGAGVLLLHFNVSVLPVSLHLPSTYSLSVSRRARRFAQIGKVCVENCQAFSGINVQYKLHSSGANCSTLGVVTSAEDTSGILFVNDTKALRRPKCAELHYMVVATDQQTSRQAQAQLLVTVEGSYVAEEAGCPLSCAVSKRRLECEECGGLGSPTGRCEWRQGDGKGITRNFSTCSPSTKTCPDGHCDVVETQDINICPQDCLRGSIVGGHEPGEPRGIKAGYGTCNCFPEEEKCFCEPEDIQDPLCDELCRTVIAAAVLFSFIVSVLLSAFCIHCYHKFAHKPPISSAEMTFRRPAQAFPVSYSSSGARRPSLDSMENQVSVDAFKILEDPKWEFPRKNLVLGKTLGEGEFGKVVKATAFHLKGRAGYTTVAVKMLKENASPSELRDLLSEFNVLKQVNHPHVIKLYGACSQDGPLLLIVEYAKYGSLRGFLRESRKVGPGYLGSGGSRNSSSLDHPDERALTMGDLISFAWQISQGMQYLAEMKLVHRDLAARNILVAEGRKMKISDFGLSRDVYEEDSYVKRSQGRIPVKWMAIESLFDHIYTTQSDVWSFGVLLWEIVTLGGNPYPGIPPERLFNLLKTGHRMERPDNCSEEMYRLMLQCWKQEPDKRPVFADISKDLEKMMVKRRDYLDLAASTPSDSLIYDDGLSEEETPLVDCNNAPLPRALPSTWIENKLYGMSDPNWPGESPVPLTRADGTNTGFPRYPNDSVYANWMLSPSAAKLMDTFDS
T13 sequence (P07948 whole entry): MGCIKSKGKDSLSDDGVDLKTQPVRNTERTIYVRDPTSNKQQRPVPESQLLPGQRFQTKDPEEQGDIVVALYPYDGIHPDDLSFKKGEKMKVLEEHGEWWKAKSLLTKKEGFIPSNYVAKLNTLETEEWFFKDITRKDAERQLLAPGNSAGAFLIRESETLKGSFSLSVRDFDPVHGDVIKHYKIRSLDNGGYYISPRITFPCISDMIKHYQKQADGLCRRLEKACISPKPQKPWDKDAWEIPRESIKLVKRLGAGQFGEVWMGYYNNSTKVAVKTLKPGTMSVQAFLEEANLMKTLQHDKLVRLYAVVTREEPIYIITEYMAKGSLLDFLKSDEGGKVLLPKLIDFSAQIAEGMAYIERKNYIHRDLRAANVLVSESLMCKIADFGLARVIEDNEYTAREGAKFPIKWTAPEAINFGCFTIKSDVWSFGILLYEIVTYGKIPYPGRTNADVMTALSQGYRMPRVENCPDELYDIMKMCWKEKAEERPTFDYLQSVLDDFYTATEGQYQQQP
T15 sequence (Q13164 whole entry): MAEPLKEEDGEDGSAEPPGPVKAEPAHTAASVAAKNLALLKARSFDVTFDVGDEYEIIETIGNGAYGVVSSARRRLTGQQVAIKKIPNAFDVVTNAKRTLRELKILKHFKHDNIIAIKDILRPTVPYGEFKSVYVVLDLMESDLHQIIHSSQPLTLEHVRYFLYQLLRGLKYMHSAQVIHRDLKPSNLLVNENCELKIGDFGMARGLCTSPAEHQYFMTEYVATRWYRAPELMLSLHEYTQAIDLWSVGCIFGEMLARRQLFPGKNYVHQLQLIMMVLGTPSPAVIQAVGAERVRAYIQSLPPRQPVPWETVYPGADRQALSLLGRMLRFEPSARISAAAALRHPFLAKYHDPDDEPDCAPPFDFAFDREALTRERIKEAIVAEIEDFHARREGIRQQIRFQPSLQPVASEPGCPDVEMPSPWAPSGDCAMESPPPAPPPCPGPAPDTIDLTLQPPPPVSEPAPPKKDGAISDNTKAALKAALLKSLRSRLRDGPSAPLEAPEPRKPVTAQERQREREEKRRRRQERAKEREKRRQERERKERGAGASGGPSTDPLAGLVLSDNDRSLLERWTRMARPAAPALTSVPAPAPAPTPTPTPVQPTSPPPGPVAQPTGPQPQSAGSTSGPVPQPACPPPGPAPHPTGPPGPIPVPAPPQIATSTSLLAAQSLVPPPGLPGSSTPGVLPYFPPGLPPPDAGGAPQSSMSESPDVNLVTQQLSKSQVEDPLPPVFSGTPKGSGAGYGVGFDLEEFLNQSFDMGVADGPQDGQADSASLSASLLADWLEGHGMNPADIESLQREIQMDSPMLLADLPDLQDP
T16 sequence (P09619 33-1106): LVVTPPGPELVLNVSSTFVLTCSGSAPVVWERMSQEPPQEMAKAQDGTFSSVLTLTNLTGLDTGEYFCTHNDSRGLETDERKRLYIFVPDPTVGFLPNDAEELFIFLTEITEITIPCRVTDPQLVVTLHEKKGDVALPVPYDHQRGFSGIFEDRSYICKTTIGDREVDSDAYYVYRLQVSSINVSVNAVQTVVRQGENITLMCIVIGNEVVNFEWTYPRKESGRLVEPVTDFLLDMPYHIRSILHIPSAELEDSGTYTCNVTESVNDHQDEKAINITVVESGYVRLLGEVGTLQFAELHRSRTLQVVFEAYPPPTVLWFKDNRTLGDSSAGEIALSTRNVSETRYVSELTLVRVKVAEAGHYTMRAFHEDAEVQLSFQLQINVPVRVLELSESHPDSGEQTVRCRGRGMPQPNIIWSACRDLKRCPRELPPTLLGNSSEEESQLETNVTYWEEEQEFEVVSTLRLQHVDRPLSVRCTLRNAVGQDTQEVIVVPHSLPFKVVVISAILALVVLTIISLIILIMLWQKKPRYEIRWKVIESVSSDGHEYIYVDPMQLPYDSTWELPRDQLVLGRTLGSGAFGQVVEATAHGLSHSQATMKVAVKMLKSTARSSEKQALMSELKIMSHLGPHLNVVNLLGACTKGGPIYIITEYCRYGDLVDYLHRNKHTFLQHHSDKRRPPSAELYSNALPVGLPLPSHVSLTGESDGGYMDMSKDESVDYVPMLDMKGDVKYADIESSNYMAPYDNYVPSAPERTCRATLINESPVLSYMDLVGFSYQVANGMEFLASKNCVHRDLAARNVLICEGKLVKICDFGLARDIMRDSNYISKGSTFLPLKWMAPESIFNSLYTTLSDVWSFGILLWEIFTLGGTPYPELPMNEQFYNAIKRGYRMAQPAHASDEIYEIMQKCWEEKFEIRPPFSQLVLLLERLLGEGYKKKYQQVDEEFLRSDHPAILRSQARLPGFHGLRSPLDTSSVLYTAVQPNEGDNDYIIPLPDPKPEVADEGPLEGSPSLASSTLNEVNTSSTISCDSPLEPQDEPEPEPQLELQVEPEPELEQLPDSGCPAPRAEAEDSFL
T24 sequence (P08069 31-1367): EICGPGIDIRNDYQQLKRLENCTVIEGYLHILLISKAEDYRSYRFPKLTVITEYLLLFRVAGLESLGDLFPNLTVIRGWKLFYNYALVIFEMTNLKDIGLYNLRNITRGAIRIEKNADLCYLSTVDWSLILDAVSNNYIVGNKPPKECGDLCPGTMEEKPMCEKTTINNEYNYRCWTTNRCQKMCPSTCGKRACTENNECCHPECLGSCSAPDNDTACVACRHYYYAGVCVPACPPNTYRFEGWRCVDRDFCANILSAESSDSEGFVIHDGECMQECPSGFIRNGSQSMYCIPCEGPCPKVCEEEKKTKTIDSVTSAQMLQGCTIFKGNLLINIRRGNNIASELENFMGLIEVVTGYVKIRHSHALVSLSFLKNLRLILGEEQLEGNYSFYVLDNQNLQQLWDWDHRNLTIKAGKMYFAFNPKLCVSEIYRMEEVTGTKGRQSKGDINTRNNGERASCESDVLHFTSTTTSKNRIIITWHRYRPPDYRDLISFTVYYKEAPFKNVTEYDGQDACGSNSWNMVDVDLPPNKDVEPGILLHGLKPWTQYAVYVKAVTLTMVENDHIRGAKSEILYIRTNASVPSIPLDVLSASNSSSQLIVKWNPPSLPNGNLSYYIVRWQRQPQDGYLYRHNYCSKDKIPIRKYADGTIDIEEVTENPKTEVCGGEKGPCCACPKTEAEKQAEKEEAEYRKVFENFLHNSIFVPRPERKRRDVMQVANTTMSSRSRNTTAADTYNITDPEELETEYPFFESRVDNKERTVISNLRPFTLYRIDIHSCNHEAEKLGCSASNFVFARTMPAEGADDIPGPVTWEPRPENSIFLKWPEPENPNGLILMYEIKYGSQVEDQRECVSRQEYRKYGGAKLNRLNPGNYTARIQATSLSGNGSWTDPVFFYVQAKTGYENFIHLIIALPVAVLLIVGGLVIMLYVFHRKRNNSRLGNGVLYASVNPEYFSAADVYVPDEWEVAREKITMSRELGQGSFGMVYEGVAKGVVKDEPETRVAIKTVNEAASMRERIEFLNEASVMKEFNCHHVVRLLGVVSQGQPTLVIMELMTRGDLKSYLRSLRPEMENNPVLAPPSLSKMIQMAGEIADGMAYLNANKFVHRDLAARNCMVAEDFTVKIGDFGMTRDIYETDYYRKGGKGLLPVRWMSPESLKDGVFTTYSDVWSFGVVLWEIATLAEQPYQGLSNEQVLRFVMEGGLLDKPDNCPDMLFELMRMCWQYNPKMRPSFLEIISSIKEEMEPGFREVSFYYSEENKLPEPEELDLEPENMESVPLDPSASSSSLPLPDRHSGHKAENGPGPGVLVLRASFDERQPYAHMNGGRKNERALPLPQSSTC

inhibition at 0.1 µM (MNK2): < 30% | inhibition at 0.1 µM (ROS): < 30% | inhibition at 0.1 µM (SRM): > 30% | inhibition at 0.1 µM (BRAF(V600E); inhibitor concentration 0.1 μM): < 30% | inhibition at 0.1 µM (KIT): < 30% | inhibition at 0.1 µM (AKT2): < 30% | inhibition at 0.1 µM (JAK1): > 30% | inhibition at 0.1 µM (JAK3): < 30% | inhibition at 0.1 µM (HER4): < 30% | inhibition at 0.1 µM (EGFR(L858R)): < 30% | inhibition at 0.1 µM (RET): < 30% | inhibition at 0.1 µM (MAP2K1): < 30% | inhibition at 0.1 µM (LYNa): < 30% | inhibition at 0.1 µM (MAP2K2): < 30% | inhibition at 0.1 µM (Erk5): < 30% | inhibition at 0.1 µM (PDGFRβ): < 30% | inhibition at 0.1 µM (ALK): < 30% | inhibition at 0.1 µM (JNK1): < 30% | inhibition at 0.1 µM (ABL): < 30% | inhibition at 0.1 µM (KIT(D816V)): < 30% | inhibition at 0.1 µM (LYNb): < 30% | inhibition at 0.1 µM (FGFR3): < 30% | inhibition at 0.1 µM (FGR): < 30% | inhibition at 0.1 µM (IGF1R): < 30%
SMILES: O=C(c1c(F)ccc(NS(=O)(=O)CC(O)CO)c1F)c1c[nH]c2ncc(-c3ccc(Cl)cc3)cc12 (stereo not drawn) [200-73, N-[3-[5-(4-chlorophenyl)-lH-pyrrolo [2,3-b]pyridine-3-carbonyl]-2,4-difluorophenyl]-2,3-dihydroxypropane-l-sulfonamide]

inhibition at 0.1 µM (MNK2): > 30% | inhibition at 0.1 µM (ROS): < 30% | inhibition at 0.1 µM (SRM): > 30% | inhibition at 0.1 µM (KIT): < 30% | inhibition at 0.1 µM (AKT2): < 30% | inhibition at 0.1 µM (JAK1): < 30% | inhibition at 0.1 µM (JAK3): < 30% | inhibition at 0.1 µM (HER4): < 30% | inhibition at 0.1 µM (EGFR(L858R)): < 30% | inhibition at 0.1 µM (RET): < 30% | inhibition at 0.1 µM (MAP2K1): < 30% | inhibition at 0.1 µM (LYNa): > 30% | inhibition at 0.1 µM (MAP2K2): < 30% | inhibition at 0.1 µM (Erk5): < 30% | inhibition at 0.1 µM (PDGFRβ): < 30% | inhibition at 0.1 µM (ALK): < 30% | inhibition at 0.1 µM (JNK1): < 30% | inhibition at 0.1 µM (ABL): < 30% | inhibition at 0.1 µM (KIT(D816V)): < 30% | inhibition at 0.1 µM (LYNb): > 30% | inhibition at 0.1 µM (FGFR3): < 30% | inhibition at 0.1 µM (FGR): > 30% | inhibition at 0.1 µM (IGF1R): < 30%
SMILES: CC(=O)CS(=O)(=O)Nc1ccc(F)c(C(=O)c2c[nH]c3ncc(-c4ccc(Cl)cc4)cc23)c1F [200-117]

inhibition at 1 µM (MNK2; inhibitor concentration 1 μM): > 50% | inhibition at 0.01 µM (SRM; [1]): > 30% | inhibition at 0.1 µM (SRM): > 50% | inhibition at 1 µM (SRM; inhibitor concentration 1 μM): > 50% | inhibition at 1 µM (BRAF(V600E); inhibitor concentration 1 μM): > 50% | inhibition at 0.01 µM (KIT; [1]): > 30% | inhibition at 0.1 µM (KIT): > 50% | inhibition at 1 µM (KIT; inhibitor concentration 1 μM): > 50% | inhibition at 0.01 µM (JAK1; [1]): > 30% | inhibition at 0.1 µM (JAK1): > 50% | inhibition at 1 µM (JAK1; inhibitor concentration 1 μM): > 50% | inhibition at 0.01 µM (JAK3; [1]): < 30% | inhibition at 0.1 µM (JAK3): < 50% | inhibition at 1 µM (JAK3; inhibitor concentration 1 μM): > 50% | inhibition at 1 µM (HER4; inhibitor concentration 1 μM): > 50% | inhibition at 0.01 µM (RET; [1]): < 30% | inhibition at 0.1 µM (RET): < 50% | inhibition at 1 µM (RET; inhibitor concentration 1 μM): > 50% | inhibition at 1 µM (MAP2K1; inhibitor concentration 1 μM): < 50% | inhibition at 0.01 µM (LYNa; [1]): < 30% | inhibition at 0.1 µM (LYNa): > 50% | inhibition at 1 µM (LYNa; inhibitor concentration 1 μM): > 50% | inhibition at 1 µM (MAP2K2; inhibitor concentration 1 μM): < 50% | inhibition at 1 µM (Erk5; inhibitor concentration 1 μM): > 50% | inhibition at 0.01 µM (PDGFRβ; [1]): < 30% | inhibition at 0.1 µM (PDGFRβ): < 50% | inhibition at 1 µM (PDGFRβ; inhibitor concentration 1 μM): > 50% | inhibition at 1 µM (ALK; inhibitor concentration 1 μM): > 50% | inhibition at 1 µM (ABL; inhibitor concentration 1 μM): < 50% | inhibition at 1 µM (KIT(D816V); inhibitor concentration 1 μM): > 50% | inhibition at 0.01 µM (LYNb; [1]): < 30% | inhibition at 0.1 µM (LYNb): > 50% | inhibition at 1 µM (LYNb; inhibitor concentration 1 μM): > 50% | inhibition at 1 µM (FGFR3; inhibitor concentration 1 μM): > 50% | inhibition at 0.01 µM (FGR; [1]): > 30% | inhibition at 0.1 µM (FGR): > 50% | inhibition at 1 µM (FGR; inhibitor concentration 1 μM): > 50% | inhibition at 1 µM (IGF1R; inhibitor concentration 1 μM): < 50%
SMILES: O=C(c1c(F)ccc(NS(=O)(=O)CCCO)c1F)c1c[nH]c2ncc(-c3ccc(Cl)cc3)cc12 [200-17, N-[3-[5-(4-chlorophenyl)-1H-pyrrolo[2,3-b]pyridine-3-carbonyl]-2,4-difluorophenyl]-3-hydroxypropane-1-sulfonamide]
